Test results taken from article PMC9574860, “Chemical Toolkit for PARK7: Potent, Selective, and High-Throughput” (Journal of Medicinal Chemistry, 2022).
Where two headings read alike, the source gives them in different places.

Columns and labels:
[1] = tested on: DUBs; assay: DUB activity profiling in HEK293T cell lysate with general DUB probe Rho-Ub-PA; assay type: biochemical; conditions: compound 5 μM 1 h 37 °C, then Rho-Ub-PA 30 min, Figure S5
Method: Due to the structural similarity of PARK7 inhibitor JYQ-88 and UCHL1 inhibitor 8RK64 and the fact that many cyanimide-containing compounds have been identified as DUB inhibitors,[35],[37] we investigated the inhibitory potential of JYQ-88 and JYQ-92 toward DUBs. After treating the HEK293T cell lysate with JYQ-88 and JYQ-92, along with UCHL1 inhibitors, 6RK73 and 8RK64 as controls,[38] the remaining activity of DUBs was determined using the general DUB probe Rho-Ub-PA (Figure S5).[39]
Figure S5. Fluorescence labeling of DUBs to investigate their remaining activity by Rh-Ub-
PA after the treatment with PARK7 inhibitor JYQ-88 and probe JYQ-92. UCHL1 inhibitors,
6RK73 and 8RK64, were used as a control. HEK293T cell lysate was treated with 5 μM final
MOPS SDS running buffer (Novex, NuPAGE) and visualized by fluorescence scanning on a
Typhoon FLA 9500 (GE Healthcare Life Sciences) using a Rhodamine channel (λex/em
(1 picture or pasted object on this page, not shown here)

[2] = biological target: T1, UCHL1 (Homo sapiens, UniProt P09936); assay: UCHL1 activity assay (Ub-Rho-Morpholine or Ub-AMC substrate); assay type: biochemical; conditions: UCHL1 1 nM, 1 h preincubation
T1 sequence (P09936 1-223): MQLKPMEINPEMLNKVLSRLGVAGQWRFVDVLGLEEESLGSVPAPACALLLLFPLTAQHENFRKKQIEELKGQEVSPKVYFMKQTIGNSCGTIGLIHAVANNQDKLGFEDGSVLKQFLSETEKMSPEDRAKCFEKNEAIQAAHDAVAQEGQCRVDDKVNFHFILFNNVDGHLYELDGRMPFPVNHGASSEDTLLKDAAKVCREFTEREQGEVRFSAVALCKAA
Method: The assay was performed in a buffer containing 50 mM Tris·HCl, 100 mM NaCl at pH 7.5, 2.0 mM cysteine, 1 mg/mL 3-[(3-cholamidopropyl)dimethylammonio]propanesulfonic acid (CHAPS), and 0.5 mg/mL bovine serum albumin and conducted in a 384-well plate (Corning 3820) with a reaction volume 20 μL in triplicate. The compounds were dissolved in DMSO as 10, 1, and 0.1 mM stock solutions and were transferred to obtain a 12-point serial dilution of 0.05 to 200 μM. Next, UCHL1 (15 μL, final concentration of 1 nM) was dispensed with a Biotek MultiFlowFX liquid dispenser and incubated for 1 h, followed by dispensing the substrate Ub-Rho-Morpholine or Ub-AMC (5 μL, final concentration of 400 nM). The FI signal was monitored with a BMG Labtech PHERAstar plate reader (λex/em 487/535 nm or λex/em 350/450 nm) for 1 h. N-Ethylmaleimide (NEM, 10 mM) was used as a positive control (100% inhibition), and DMSO was used as a negative control (0% inhibition). All samples were normalized to the positive and negative controls and plotted against the inhibitor concentrations (in μM) using the built-in equation “[inhibitor] vs response – variable slope (four parameters), least-squares fit” with constraints “Bottom = 0” and “Top = 100” in GraphPad Prism 9.0.1 software to obtain the IC50 values.

[3] = biological target: T1, UCHL1; assay: Gel-based competition assay with probe 8RK59, UCHL1 band; assay type: biochemical; conditions: compound 2 μM, 1 h; PARK7 and UCHL1 1 μM each; then 8RK59 2 μM 30 min; Figure 3B
Method: To assess the inhibitory potency and selectivity of these compounds toward PARK7 and UCHL1, we performed a gel-based competition assay (Figure 3A).[36] A mixture of equal amounts of PARK7 and UCHL1 (1 μM) was treated with each of the synthesized compounds (2 μM) for 1 h, followed by incubation with fluorescent probe 8RK59 (2 μM) for 30 min. Samples were resolved by SDS-PAGE, and the gel was scanned for fluorescence. Inhibition of PARK7 or UCHL1 is reflected by the disappearance of their corresponding bands (Figure 3B). […] The inhibition potential of JYQ-88 against PARK7 was assessed in a similar assay where PARK7 was incubated with a serial dilution of JYQ-88 before treatment with probe 8RK59 (Figure 3C). A clear inhibition is visible at 0.5 μM, and full inhibition is achieved between 1 and 2 μM. […] The selectivity of JYQ-88 between UCHL1 and PARK7 was further confirmed in a direct competition assay between equal amounts of PARK7 and UCHL1 (Figure 3F). PARK7 inhibition was observed starting from 0.5 μM JYQ-88, whereas inhibition of UCHL1 was only detected at 20 μM. Since JYQ-88 and 8RK64 are enantiomers, we assumed that the interactions with PARK7 should be similar. To investigate how the chiral center influences the selectivity, we solved the crystal structure of the PARK7−JYQ-88 complex with 1.42 Å resolution (Figure 3G, Table S1, PDB 7PA3). The global positioning of the inhibitor in between the two α-helices was similar to that for 8RK64. […] This way, the thiazolo-pyridine part of JYQ-88 is bound in a similar manner as 8RK64 and the earlier observed interactions are largely the same. The formation of the isothiourea moiety, stabilized by the interaction with Glu18, and the interaction between the thiazole amine and the amide NH2 of the Asn76 side chain are still present. However, the interaction between the azidoacetyl carbonyl with the Leu128 backbone carbonyl can no longer be observed due to the rotation of the azidoacetyl moiety. The Lys132 residue also seems to have rotated (compared to Figure 2C).
The assay was performed in Tris buffer as described above.

[4] = biological target: T1, UCHL1; assay: JYQ-92 labeling in HEK293T cell lysate with UCHL1 knockdown; conditions: HEK293T lysate with PARK7 or UCHL1 knockdown, probe 1 μM; Figure 4D
Method: (§1) We next investigated the ability of JYQ-92 to label PARK7 activity in HEK293T cell lysates by treating with the increasing concentration of JYQ-92 (0–5 μM) for 1 h. […] To study its specificity toward PARK7 compared to UCHL1 in more detail, HEK293T cell lysates where we knockdown PARK7 or UCHL1 were treated with 1 μM final concentration of JYQ-92.
(§2) The samples were kept on ice and sonicated using 10 cycles of 30 s pulse on and 30 s pulse off (Bioruptor, Diagenode). […] For the labeling experiments, the prepared cell lysate was incubated with an indicated concentration of JYQ-92 in each experiment for 1 h at 37 °C. The reactions were stopped by adding NuPAGE LDS sample buffer (4×).

[5] = biological target: T2, PARK7 (Homo sapiens, UniProt Q99497); assay: Probe labeling of purified recombinant PARK7 (SDS-PAGE, fluorescence scanning); assay type: binding; set-up: GST (N, cleaved yes); made in house; host or cells: E. coli BL21(DE3) Rosetta2
T2 sequence (Q99497 1-189): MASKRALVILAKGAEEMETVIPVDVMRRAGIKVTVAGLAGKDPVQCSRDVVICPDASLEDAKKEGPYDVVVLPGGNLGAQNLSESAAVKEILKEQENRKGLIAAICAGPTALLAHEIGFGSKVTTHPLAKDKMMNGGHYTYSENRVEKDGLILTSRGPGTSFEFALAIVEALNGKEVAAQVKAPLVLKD
From the text: PARK7 inhibitor JYQ-88 was further converted into activity-based probes by installing SulfoCy5, Rhodamine110, or BodipyFL. We took advantage of the azide moiety in JYQ-88 and conjugated alkyne versions of these dyes using the copper(I)-catalyzed azide alkyne cycloaddition (CuAAC) to obtain compounds JYQ-92, JYQ-93, and JYQ-107 (Scheme 2). We next investigated the ability of the probes to label and visualize PARK7. […] The SulfoCy5 probe JYQ-92 and Rhodamine110 probe JYQ-107 labeled PARK7 already at 1 μM, while the BodipyFL probe JYQ-93 was less efficient than the other probes as PARK7 labeling was only observed from 5 μM.
All the labeling assays were performed in Tris buffer (50 mM Tris–HCl, 150 mM NaCl, 2 mM TCEP, pH 7.5). For labeling with the 8RK59 probe, 1 μM final concentrations of UCHL1 and PARK7 were individually or together incubated with 2 μM final concentrations of 8RK59 for 30 min at 37 °C, followed by protein visualization. For labeling with JYQ-92, JYQ-93, and JYQ-107, 1 μM final concentration of PARK7 was incubated with different concentrations (0, 0.1, 0.5, 1, 2, 5, and 10 μM) of the indicated probes for 1 h at 37 °C. […] These samples were resolved by SDS-PAGE using precast Bis-Tris gels (Invitrogen, NuPAGE) with MES SDS running buffer (Novex, NuPAGE).

[6] = biological target: T2, PARK7; assay: Probe JYQ-92 labeling of endogenous PARK7 in HEK293T cell lysate; conditions: 0–5 μM probe, 1 h, Figure 4C
Method: as §1, §2

[7] = tested on: PARK7 and UCHL1; assay: Labeling of a mixture of purified recombinant UCHL1 and PARK7 with probe 8RK59 (SDS-PAGE, fluorescence scanning); assay type: binding; conditions: UCHL1 and PARK7 1 μM each, probe 2 μM, 30 min 37 °C
Method: To determine the labeling efficiency of 8RK59 for both UCHL1 and PARK7, a mixture of equal amounts of purified recombinant UCHL1 and PARK7 (1 μM each) is labeled with 8RK59 (2 μM). […] To gain more insight into the inhibitor binding mode and to guide the design of novel PARK7 inhibitors, the crystal structure of the PARK7–8RK64 complex was solved with 1.21 Å resolution (Figure 2C, Table S1, PDB 7PA2). The structure is obtained as a monomer and compared to its apo structure (PDB 1J42). […] Globally, the inhibitor fits into a groove between two α-helices formed by residues 76–84 and 126–134 (Figure 2C, left panel). The covalent bond between 8RK64 and PARK7 is clearly visible (Figure 2C, middle panel). The cyanimide moiety of the inhibitor reacted to active site Cys106, thereby forming an isothiourea linkage, which is similar to what has been observed for the reaction of cyanamide-based and azanitrile inhibitors with cathepsins.[33],[34] The isothiourea moiety is stabilized by an H-bond between the NH and the carboxylate side chain of the nearby Glu18. Another interaction is found between the thiazole ring amine in the inhibitor and the amide NH2 of the Asn76 side chain. Hydrogen bonding between the carbonyl of the azidoacetyl moiety and the Leu128 backbone carbonyl via a water molecule is also observed. […]

Q: With `N#CN1CC[C@H](C(=O)Nc2nc3c(s2)CN(C(=O)CN=[N+]=[N-])CC3)C1` [8RK64, reference compound] as the compound, how does the “Effect on remaining DUB activity (Rho-Ub-PA labeled bands)” value [1] read?
A: The value was “disappearance of the UCHL1 band”.

Q: And the IC50 ([2]; Figure 3E, read-out: UCHL1 IC50)?
A: Its IC50 is 0.23 µM.

Q: What about the “Inhibition of UCHL1 (disappearance of 8RK59-labeled band)” value [3] of the same compound?
A: The value was “fully inhibit”.

Q: What does the source list for `CC[N+]1=C(/C=C/C=C/C=C2/N(CCCCCC(=O)NCCCc3cn(CC(=O)N4CCc5nc(NC(=O)[C@@H]6CCN(C#N)C6)sc5C4)nn3)c3ccc(S(=O)(=O)O)cc3C2(C)C)C(C)(C)c2cc(S(=O)(=O)[O-])ccc21` [JYQ-92]?
A: Binding to UCHL1 in the cell lysate [4]: not to UCHL1; Binding to wild-type PARK7 ([5]; probe 2 μM, 1 h, Figure 4B): only binds to the active wild-type PARK7; Probe concentration from which PARK7 labeling was observed ([5]; purified PARK7 1 μM, 1 h 37 °C, Figure 4A): 1 µM; Effect on remaining DUB activity (Rho-Ub-PA labeled bands) [1]: no influence on DUB activity; IC50 ([2]; read-out: UbRhoMP assay UCHL1 IC50): 19.8 µM; Probe concentration at which a clear PARK7 band (20 kDa) was observed [6]: 0.5 µM

Q: Which “Labeling of PARK7 and UCHL1 by probe” value [7] does the source give for `CC1=CC(C)=[N+]2C1=C(CCCCc1cn(CC(=O)N3CCc4nc(NC(=O)[C@H]5CCN(C#N)C5)sc4C3)nn1)c1c(C)cc(C)n1[B-]2(F)F` [8RK59] here?
A: The value was “nearly equal extent”.
